Measured values from patent US9085514B2, “Unnatural amino acids comprising a cyclooctynyl or trans-cyclooctenyl analog group and uses thereof” (EMBL, priority 2011, dated 2015).

Tests used:
Assay type in all cases: cell-based, M. maize
tRNA^pyl/pylRS^AF = biological target: T1, tRNA^pyl/pylRS^AF (Methanosarcina mazei, UniProt Q8PWY1, Y306A/Y384F); experiment: UAA dependent amber suppression in HeLa cells (NLS-mCherry-^TAGGFP, automated microscope), RS^AF; conditions: HeLa nuclei, 24 h after transfection
T1 construct: expressed in transfected cells; host or cells: HeLa Kyoto cells, plasmid pCMV tRNA^pyl/pylRS^AF
T1 sequence (Q8PWY1 whole entry Y306A/Y384F): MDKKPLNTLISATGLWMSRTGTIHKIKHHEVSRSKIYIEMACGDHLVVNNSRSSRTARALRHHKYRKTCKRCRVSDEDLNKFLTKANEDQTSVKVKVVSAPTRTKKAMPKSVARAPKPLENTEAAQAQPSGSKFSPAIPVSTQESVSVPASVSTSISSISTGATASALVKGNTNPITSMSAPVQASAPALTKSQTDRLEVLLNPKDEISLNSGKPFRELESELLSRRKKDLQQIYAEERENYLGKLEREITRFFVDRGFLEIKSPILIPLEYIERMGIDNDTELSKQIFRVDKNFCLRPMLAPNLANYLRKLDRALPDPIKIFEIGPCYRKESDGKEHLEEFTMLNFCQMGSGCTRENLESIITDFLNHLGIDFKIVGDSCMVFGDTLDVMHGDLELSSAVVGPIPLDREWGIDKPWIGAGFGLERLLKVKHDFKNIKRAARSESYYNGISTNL
From the text: (§1) A single expression plasmid for expression of both tRNA^pyl and the pyrrolysine synthetase pylRS was generated by replacing the tRNA and synthetase of mammalian UAA expression plasmid pSWAN (Liu et al., Nat Methods 2007, 4: 239) with a synthetic gene derived from the plasmid pEVOL tRNA^pyl/pylRS^WT or pEVOL tRNA^pyl/pylRS^AF.
(§2) For mammalian amber suppression studies, a NLS-mCherry-^TAGGFP fusion protein was generated. Due to the nuclear localization sequence (NLS) the expressed protein was targeted to the nucleus. Accordingly, mCherry expression was visible by orange fluorescence in the nucleus signifying the successful transfection of the plasmid. Green fluorescence indicated successful GFP expression due to successful co-transfection of the appropriate tRNA^pyl/pylRS plasmid and suppression of the amber codon in the fused ^TAGGFP.
(§3) UAA concentration dependent GFP expression in the presence of UAA 1, 13, 16 or 17 and RS^WT or RS^AF was analyzed using the following automated microscope procedure.
(§4) HeLa Kyoto cells were grown in DMEM low glucose medium (1 g/l) (Sigma, Munich, Germany) with 10% FBS (Sigma) and 1% L-glutamine. 10−20×10^3 cells per well were seeded in a glass bottom 24-well chamber and cultured overnight. On the next-day, the growth medium was exchanged for fresh one supplied with increasing concentrations of UAA (0, 1, 10, 100, 250, 1000 μM), and the cells were co-transfected (1:1 ratio) with plasmids-carrying NLS-mCherry-^TAGGFP and the respective tRNA^pyl/pylRS pair (RS^WT or RS^AF) using jetPRIME transfection reagent following the manufacturer protocol (Polyplus-transfection. SA, Illkirch, France). 24 h after transfection, cells were stained with Hoechst 33342 (1 μg/ml, 10 min), fixed with 2% paraformaldehyde (15 min, RT) and kept in PBS for imaging. For every UAA concentration, the experiment was repeated twice and in two independently prepared 24 well chambers.
(§5) Microscopy imaging was performed using automated widefield Olympus ScanR microscope (objective UplanApo 20×, 0.70 NA, Hamamatsu Orca R2 CCD camera) in, three channels (Hoechst, GFP, mCherry). For every well at least 25 images (1344×1024 pixels; 433×330 μm, 12-bit) were acquired (exposure times: 30 ms Hoechst, 100 ms mCherry, 100 ms for GFP). Hoechst staining allowed use of the automated focus option of the system. Images were analyzed using the ImageJ macro (http://fiji.sc/wiki/index.php) allowing quantification of GFP fluorescence intensity in the cells showing mCherry fluorescence signal. Hoechst staining was used to threshold and select nuclei. For every detected nucleus, intensities, in the mCherry and GFP channels were quantified. Background intensities in GFP and mCherry channel were measured using one well of each chamber containing cells that were not transfected but stained with Hoechst. Those background values set the threshold to discriminate cells expressing mCherry from the background. For every well the average intensity of GFP (IGFP) in cells positive for GFP and mCherry signals was determined as a measure of successful UAA incorporation. GFP intensities were normalized separately for every UAA based on the maximal observed signal (either for RS^WT or RS^AF).

tRNA^pyl/pylRS^WT = biological target: T2, tRNA^pyl/pylRS^WT (Methanosarcina mazei, UniProt Q8PWY1); experiment: UAA dependent amber suppression in HeLa cells (NLS-mCherry-^TAGGFP, automated microscope), RS^WT; conditions: HeLa nuclei, 24 h after transfection
T2 construct: expressed in transfected cells; host or cells: HeLa Kyoto cells, plasmid pCMV tRNA^pyl/pylRS^WT
T2 sequence (Q8PWY1 whole entry): as the sequence (Q8PWY1 whole entry Y306A/Y384F) above, with A306Y, F384Y counted along it
From the text: as §1, §2, §3, §4, §5

[1] = biological target: T3, mutant pyrrolysyl tRNA synthetase comprising amino acid substitutions Y306A and Y384F (pylRS^AF) (Methanosarcina mazei, UniProt Q8PWY1, Y306A/Y384F); experiment: Expression of GFP^TAG in E. coli in presence of UAA (amber suppression) with tRNA^pyl/pylRS^AF; conditions: 1 mM UAA; for incorporation by RS^AF (GFP fluorescence, SDS-PAGE): FIG. 6; for Expression of GFP^TAG protein: pylRS^WT or pylRS^AF, compared to negative control (FIG. 1)
T3 construct: expressed in transfected cells; host or cells: E. coli Top10, plasmid pEVOL tRNA^pyl/pylRS^AF
T3 sequence (Q8PWY1 whole entry Y306A/Y384F): as the sequence (Q8PWY1 whole entry Y306A/Y384F) above

[2] = biological target: T4, wildtype pyrrolysyl tRNA synthetase (pylRS^WT) (Methanosarcina mazei, UniProt Q8PWY1); experiment: Expression of GFP^TAG in E. coli in presence of UAA (amber suppression) with tRNA^pyl/pylRS^WT; conditions: 1 mM UAA, FIG. 6
T4 construct: expressed in transfected cells; host or cells: E. coli Top10, plasmid pEVOL tRNA^pyl/pylRS^WT
T4 sequence (Q8PWY1 whole entry): as the sequence (Q8PWY1 whole entry Y306A/Y384F) above, with A306Y, F384Y counted along it

| SMILES | IGFP (average intensity of GFP, normalized) (tRNA^pyl/pylRS^AF; 1 μM UAA) | IGFP (average intensity of GFP, normalized) (tRNA^pyl/pylRS^AF; 10 μM UAA) | IGFP (average intensity of GFP, normalized) (tRNA^pyl/pylRS^AF; 100 μM UAA) | IGFP (average intensity of GFP, normalized) (tRNA^pyl/pylRS^AF; 250 μM UAA) | IGFP (average intensity of GFP, normalized) (tRNA^pyl/pylRS^AF; 1000 μM UAA) | IGFP (average intensity of GFP, normalized) (tRNA^pyl/pylRS^WT; 1 μM UAA) | IGFP (average intensity of GFP, normalized) (tRNA^pyl/pylRS^WT; 10 μM UAA) | IGFP (average intensity of GFP, normalized) (tRNA^pyl/pylRS^WT; 100 μM UAA) | IGFP (average intensity of GFP, normalized) (tRNA^pyl/pylRS^WT; 250 μM UAA) | IGFP (average intensity of GFP, normalized) (tRNA^pyl/pylRS^WT; 1000 μM UAA) | incorporation by RS^AF (GFP fluorescence, SDS-PAGE) [1] | Incorporation by RS^WT (GFP^TAG expression) [2] | Expression of GFP^TAG protein [1] |
| --- | --- | --- | --- | --- | --- | --- | --- | --- | --- | --- | --- | --- | --- |
| N[C@@H](CCCCNC(=O)OC1CC2C=CC1C2)C(=O)O (some centres unmarked) [compound 16] | 5.7 | 46.1 | 114.8 | 100.4 | 96.9 | 1.5 | 6.9 | 9.4 | 171.6 | 178.3 | efficient incorporation | highest GFP^TAG expression | – |
| N[C@@H](CCCCNC(=O)OCCOC1C#CCCCCC1)C(=O)O (stereo partly drawn) [compound 2, N-ε-((2-(Cyclooct-2-yn-1-yloxy)ethoxy)carbonyl)-L-lysine] | – | – | – | – | – | – | – | – | – | – | – | – | observed |
| N[C@@H](CCCCNC(=O)OC1C#CCCCCC1)C(=O)O (stereo partly drawn) [compound 1, N-ε-((Cyclooct-2-yn-1-yloxy)carbonyl)-L-lysine] | 23.7 | 131.7 | 106.1 | 203.6 | 118.4 | 3.3 | 5.9 | 27.6 | 59.6 | 57.5 | efficient incorporation | – | observed |
| N[C@@H](CCCCNC(=O)OC1CC/C=C/CCC1)C(=O)O (some centres unmarked) [compound 13] | 11.1 | 11.0 | 28.8 | 36.5 | 20.6 | 6.3 | 6.9 | 15.9 | 22.3 | 33.2 | efficient incorporation | – | – |
| N[C@@H](CCCCNC(=O)OCC1CC2C=CC1C2)C(=O)O (some centres unmarked) [compound 17] | 10.9 | 57.5 | 76.6 | 163.5 | 108.9 | 4.2 | 2.6 | 4.3 | 5.7 | 12.8 | efficient incorporation | – | – |
